The values below come from US20230016034A1, “ENHANCEMENT OF iPSC-DERIVED EFFECTOR IMMUNE CELL USING SMALL COMPOUNDS” (Fate Therapeutics, Inc., priority 2019, published 2023).

The experiment relates to Nalm6-luciferase cells. The experiment is described as follows: In vivo efficacy of dexamethasone-treated post-thaw CD19-CAR iT cells, systemic Nalm6-luciferase model. Details: species or system NSG female mice. The settings on record: p>0.1. From the text:
Tumor progression was monitored at days 7, 14 and 20 post tumor injection by bioluminescent imaging. CAR-iT cells treated with dexamethasone (FIG. 8B) were compared with control cells without dexamethasone treatment (FIG. 8A) in cultures for iv/iv in vivo efficacy.

Regarding `C[C@@H]1C[C@H]2[C@@H]3CCC4=CC(=O)C=C[C@]4(C)[C@@]3(F)[C@@H](O)C[C@]2(C)[C@@]1(O)C(=O)CO` [dexamethasone], the Days of survival is above 80 days.
